Source: patent US20250361234A1 (NICO THERAPEUTICS, INC., priority 2022, published 2025)
pIC50: −log10 of the molar value.

Target: T1, full-length SARM1 (FL-SARM1) (Homo sapiens, UniProt Q6SZW1)
T1 sequence (Q6SZW1 28-724): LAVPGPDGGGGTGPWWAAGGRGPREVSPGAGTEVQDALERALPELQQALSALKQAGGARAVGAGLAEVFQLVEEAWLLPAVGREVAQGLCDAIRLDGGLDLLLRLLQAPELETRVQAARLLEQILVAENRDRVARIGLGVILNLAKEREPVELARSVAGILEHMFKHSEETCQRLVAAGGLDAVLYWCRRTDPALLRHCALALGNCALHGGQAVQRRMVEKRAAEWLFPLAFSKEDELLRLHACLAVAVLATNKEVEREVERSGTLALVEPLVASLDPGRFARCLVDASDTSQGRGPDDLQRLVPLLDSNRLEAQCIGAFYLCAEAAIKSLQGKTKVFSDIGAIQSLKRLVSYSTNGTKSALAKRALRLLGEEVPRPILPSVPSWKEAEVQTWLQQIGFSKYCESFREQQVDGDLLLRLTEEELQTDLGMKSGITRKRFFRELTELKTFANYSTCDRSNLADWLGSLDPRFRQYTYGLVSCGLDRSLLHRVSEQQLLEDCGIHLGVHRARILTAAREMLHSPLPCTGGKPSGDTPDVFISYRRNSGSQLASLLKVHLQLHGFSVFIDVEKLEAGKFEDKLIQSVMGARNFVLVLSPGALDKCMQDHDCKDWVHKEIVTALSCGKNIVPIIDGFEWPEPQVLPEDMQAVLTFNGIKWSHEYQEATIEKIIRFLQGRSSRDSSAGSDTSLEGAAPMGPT
Assay: FL-SARM1 cellular lysate assay (NAD/NADH-Glo readout of remaining NAD+)
Settings: SARM1 cellular lysate from transfected HEK293T cells, NAD+ and NMN, 11 point curve; for IC50: Activity (μM); for pIC50: Activity
Protocol: Preparation of full-length SARM1 (FL-SARM1) lysate: HEK293T cells (ATCC: CRL-3216) were grown on 150 mm TC-treated dishes to 80-90% confluency in complete DMEM (Thermo Fisher: 11965175) supplemented with 10% HI-FBS (VWR: 10802-772), 1× Pen/Strep (Thermo Fisher: 15140122), 1× NEAA (Thermo Fisher: 1140050), 1× glutamax (Thermo Fisher: 35050061), and 1 mM sodium pyruvate (Thermo Fisher: 11360070)) at 37° C. and 5% CO2. One hour prior to transfection, the media was replaced with fresh, 37° C. complete DMEM (20 mL per one 150 mm dish) supplemented with additional 10 mM glucose (Alfa Aesar AAJ60067EQE). Per one 150 mm dish, 30 μg FL-SARM1 (SEQ. ID. 1; cloned in-house) plasmid was dissolved in 1 mL DMEM at ambient temperature and were mixed by inverting the tube 8-10 times. 90 μL of GenJet™ in vitro DNA transfection reagent (Ver2) was dissolved in 1 mL DMEM at ambient temperature and were mixed by inverting the tube 8-10 times. The plasmid and transfection agent solutions were combined, mixed by 8-10 inversions and incubated for 10 minutes at ambient temperature. 2 mL of this transfection mixture was added to each dish containing HEK293T cells as prepared above followed by a gentle mixing of 4-5 horizontal rotations. The dishes were incubated at 37° C. and 5% CO2 for 24 h. The dishes were removed from the incubator, the medium was aspirated and the cells were scraped off using cell scrapers in ice-cold 1× PBS (5 mL/dish, Thermo Fisher Scientific 10010023). The collected cells were centrifuged at 300 g for 5 minutes at 4° C. The supernatant was aspirated and the pellet was frozen at −80° C. until needed. The cell pellet from 30 dishes was dissolved in 30 mL 1× PBS supplemented with 4 tablets of Complete, Mini EDTA-free protease inhibitor cocktail at 4° C. This mixture was sonicated on ice for 10 minutes at 50% amplitude with a 1 second on/1 second off interval using a Model 120 sonicator (Thermo Fisher Scientific, FB120110). The lysate was centrifuged at 16000 g for 10 minutes at 4° C.
To a white 384-well Proxiplate (PerkinElmer, PE-6008280) was added 50 nL/well of a DMSO solution containing test compounds followed by 7.5 mL/well of a 0.067 mg/mL solution of SARM1 cellular lysate in reaction buffer (DPBS containing CHAPSO (0.1%) and fatty acid free BSA (0.032%)). The plate was centrifuged for 1 minute at 1000 RPM and then placed in an incubator at 23° C. for 15 minutes. To the wells were added 2.5 mL/well of a solution containing 40 mM NAD^+ and 4 mM NMN in reaction buffer. The plate was centrifuged for 1 min at 1000 RPM, the plate was sealed and placed in an incubator at 23° C. for 3.5 hours before adding 3.5 mL/well of NAD/NADH-Glo™ solution (preparation as described by Promega using the extended detection protocol). The plate was centrifuged for 1 minute at 1000 RPM and then incubated at 23° C. for 20 minutes. 1 mL/well of a 3.625 mM solution of menadione in DMSO was added and the plate was centrifuged for 1 minute at 1000 RPM. […] Percent inhibition was calculated as follows:
IC50 values were calculated from an 11 point curve using ½ log dilutions using a four-parameter logistic regression curve fit.

| Structure (SMILES) | IC50 | pIC50 |
| --- | --- | --- |
| Cc1ccc(NC(=O)[C@H]2C[C@@H](C3CC3(F)F)C2)cc1-c1cccnc1 (stereo partly drawn) [Example 100, cis-3-(2,2-difluorocyclopropyl)-N-(4-methyl-3-pyridin-3-ylphenyl)cyclobutane-1-carboxamide] | 1.5 µM | 5.00 to 6.00 |
| Cc1cc(F)c(NC(=O)N2C3C[C@H](C)C[C@@H]2C3)cc1-c1cncc(F)c1 [Example 41, cis-N-(2-fluoro-5-(5-fluoropyridin-3-yl)-4-methylphenyl)-3-methyl-6-azabicyclo[3.1.1]heptane-6-carboxamide] | 0.04 µM | 6.00 to 10.00 |
| Cc1ccc(NC(=O)[C@H]2C[C@H](C3CC3(F)F)C2)cc1-c1cccnc1 (stereo partly drawn) [Example 99, trans-3-(2,2-difluorocyclopropyl)-N-(4-methyl-3-pyridin-3-ylphenyl)cyclobutane-1-carboxamide] | 5.1 µM | 5.00 to 6.00 |
| Cc1ccc(NC(=O)N2C3C[C@H]2C[C@@]2(C3)CC2(F)F)cc1-c1cncc(F)c1 [Example 11, cis-2′,2′-difluoro-N-(3-(5-fluoropyridin-3-yl)-4-methylphenyl)-6-azaspiro[bicyclo[3.1.1]heptane-3,1′-cyclopropane]-6-carboxamide] | 0.08 µM | 6.00 to 10.00 |
| Cc1ccc(NC(=O)N2C3C[C@H]2C[C@H](n2cccn2)C3)cc1-c1cncc(F)c1 [Example 6, trans-N-(3-(5-fluoropyridin-3-yl)-4-methylphenyl)-3-(1H-pyrazol-1-yl)-6-azabicyclo[3.1.1]heptane-6-carboxamide] | 6.6 µM | 5.00 to 6.00 |
| Cc1nnc([C@]23C[C@H](C)C[C@H](C2)N3C(=O)Nc2ccc(C(F)(F)F)c(-c3cncc(F)c3)c2)o1 (single isomer, unassigned) [Example 120, cis-N-(3-(5-fluoropyridin-3-yl)-4-(trifluoromethyl)phenyl)-3-methyl-1-(5-methyl-1,3,4-oxadiazol-2-yl)-6-azabicyclo[3.1.1]heptane-6-carboxamide] | > 50 µM | < 5.00 |
| Cc1ccc(NC(=O)N2C3CCC2(C)CC3)cc1-c1cncc(F)c1 [Example 5, N-(3-(5-fluoropyridin-3-yl)-4-methylphenyl)-1-methyl-7-azabicyclo[2.2.1]heptane-7-carboxamide] | 0.3 µM | 6.00 to 10.00 |
| Cc1ccc(NC(=O)N2C[C@@H]3CC2C[C@H]3C#N)cc1-c1cncc(F)c1 [Example 16, cis-5-cyano-N-(3-(5-fluoropyridin-3-yl)-4-methylphenyl)-2-azabicyclo[2.2.1]heptane-2-carboxamide] | 41 µM | < 5.00 |
| Cc1ccc(NC(=O)[C@H]2C[C@H](C3CC3)C2)cc1-c1cncc(F)c1 [Example 108, trans-3-cyclopropyl-N-[3-(5-fluoropyridin-3-yl)-4-methylphenyl]cyclobutane-1-carboxamide] | 5.3 µM | 5.00 to 6.00 |
| Cc1nnc([C@]23C[C@H](C)C[C@H](C2)N3C(=O)Nc2cc(-c3cncc(F)c3)c(C)cc2F)o1 (single isomer, unassigned) [Example 125, cis-N-(2-fluoro-5-(5-fluoropyridin-3-yl)-4-methylphenyl)-3-methyl-1-(5-methyl-1,3,4-oxadiazol-2-yl)-6-azabicyclo[3.1.1]heptane-6-carboxamide] | 0.025 µM | 6.00 to 10.00 |
| CO[C@H]1CC2C[C@H](C1)N2C(=O)Nc1cc(-c2cncc(F)c2)c(C)cc1F [Example 3, trans-N-(2-fluoro-5-(5-fluoropyridin-3-yl)-4-methylphenyl)-3-methoxy-6-azabicyclo[3.1.1]heptane-6-carboxamide] | 2.5 µM | 5.00 to 6.00 |
| Cc1ccc(NC(=O)N2C3CCCC2(C(=O)N2CCCC2)C3)cc1-c1cncc(F)c1 (stereo not shown) [Example 93, N-[3-(5-fluoropyridin-3-yl)-4-methylphenyl]-1-(pyrrolidine-1-carbonyl)-6-azabicyclo[3.1.1]heptane-6-carboxamide] | 4.4 µM | 5.00 to 6.00 |
| Cc1ccc(NC(=O)C2CCCN2c2ncccn2)cc1-c1cncc(F)c1 (racemic) [Example 104, N-[3-(5-fluoropyridin-3-yl)-4-methylphenyl]-1-pyrimidin-2-ylpyrrolidine-2-carboxamide] | 26.4 µM | < 5.00 |
| Cc1ccc(NC(=O)N2C3CCCC2C3)cc1-c1cccnc1C [Example 69, N-[4-methyl-3-(2-methylpyridin-3-yl)phenyl]-6-azabicyclo[3.1.1]heptane-6-carboxamide] | 1.6 µM | 5.00 to 6.00 |
| Cc1ccc(NC(=O)N2CC[C@@H](C)C[C@H]2C)cc1-c1cncc(F)c1 (racemic) [Example 119, cis-N-(3-(5-fluoropyridin-3-yl)-4-methylphenyl)-2,4-dimethylpiperidine-1-carboxamide] | 1.1 µM | 5.00 to 6.00 |
| COC(=O)[C@H]1CCC2C[C@@H]1N2C(=O)Nc1ccc(C)c(-c2cncc(F)c2)c1 [Example 40, cis-methyl 6-((3-(5-fluoropyridin-3-yl)-4-methylphenyl)carbamoyl)-6-azabicyclo[3.1.1]heptane-2-carboxylate] | 20.9 µM | < 5.00 |
| Cc1ccc(NC(=O)N2C3CCCC2C3)cc1-c1cncc(Cl)c1 [Example 117, N-[3-(5-chloro-3-pyridyl)-4-methyl-phenyl]-6-azabicyclo[3.1.1]heptane-6-carboxamide] | 0.03 µM | 6.00 to 10.00 |
| Cc1nnc([C@]23C[C@H](C)C[C@H](C2)N3C(=O)Nc2cc(-c3cncc(F)c3)c(C)cc2F)o1 (single isomer, unassigned) [Example 124, cis-N-(2-fluoro-5-(5-fluoropyridin-3-yl)-4-methylphenyl)-3-methyl-1-(5-methyl-1,3,4-oxadiazol-2-yl)-6-azabicyclo[3.1.1]heptane-6-carboxamide] | 5.5 µM | 5.00 to 6.00 |
| Cc1ccc(NC(=O)N2CCCCC2C)cc1-c1cncc(F)c1 (racemic) [Example 32, N-(3-(5-fluoropyridin-3-yl)-4-methylphenyl)-2-methylpiperidine-1-carboxamide] | 1.9 µM | 5.00 to 6.00 |
| Cc1ccc(NC(=O)N2C3C[C@@H]2C[C@@H](C(C)(C)O)C3)cc1-c1cncc(F)c1 [Example 14, trans-N-(3-(5-fluoropyridin-3-yl)-4-methylphenyl)-3-(2-hydroxypropan-2-yl)-6-azabicyclo[3.1.1]heptane-6-carboxamide] | 23.9 µM | < 5.00 |
| Cc1ccc(NC(=O)N2C3CCCC2C3)cc1-c1cncc(OC(F)(F)F)c1 [Example 35, N-(4-methyl-3-(5-(trifluoromethoxy)pyridin-3-yl)phenyl)-6-azabicyclo[3.1.1]heptane-6-carboxamide] | 0.1 µM | 6.00 to 10.00 |
| CCO[C@@H]1C[C@@H]2C[C@H](C1)N2C(=O)Nc1ccc(C)c(-c2cncc(F)c2)c1 [Example 2, cis-3-ethoxy-N-(3-(5-fluoropyridin-3-yl)-4-methylphenyl)-6-azabicyclo[3.1.1]heptane-6-carboxamide] | 3.3 µM | 5.00 to 6.00 |
| Cc1ncc(-c2cc(NC(=O)[C@@H]3CC3(F)F)ccc2C)cn1 [Example 111, (1S)-2,2-difluoro-N-[4-methyl-3-(2-methylpyrimidin-5-yl)phenyl]cyclopropane-1-carboxamide] | 20.4 µM | < 5.00 |
| Cc1ccc(-c2cc(NC(=O)N3C4CCCC3C4)ccc2C)cn1 [Example 70, N-[4-methyl-3-(6-methylpyridin-3-yl)phenyl]-6-azabicyclo[3.1.1]heptane-6-carboxamide] | 0.3 µM | 6.00 to 10.00 |
| COC(=O)[C@H]1CC2C[C@@H](C1)N2C(=O)Nc1ccc(C)c(-c2cncc(F)c2)c1 (single isomer, unassigned) [Example 13, cis-methyl 6-((3-(5-fluoropyridin-3-yl)-4-methylphenyl)carbamoyl)-6-azabicyclo[3.1.1]heptane-3-carboxylate] | 3.4 µM | 5.00 to 6.00 |
| C[C@@H]1CC2C[C@H](C1)N2C(=O)Nc1ccc(F)c(-c2cncc(F)c2)c1 (single isomer, unassigned) [Example 58, cis-N-(4-fluoro-3-(5-fluoropyridin-3-yl)phenyl)-3-methyl-6-azabicyclo[3.1.1]heptane-6-carboxamide] | 0.3 µM | 6.00 to 10.00 |
| Cc1ccc(NC(=O)CC2CCC2)cc1-c1cncnc1 [Example 118, 2-cyclobutyl-N-(4-methyl-3-pyrimidin-5-ylphenyl)acetamide] | 13.9 µM | < 5.00 |
| Cc1ccc(NC(=O)N2C3C[C@H](OC(F)F)C[C@@H]2C3)cc1-c1cncc(F)c1 [Example 29, cis-3-(difluoromethoxy)-N-(3-(5-fluoropyridin-3-yl)-4-methylphenyl)-6-azabicyclo[3.1.1]heptane-6-carboxamide] | 0.1 µM | 6.00 to 10.00 |
| Cc1ccc(NC(=O)OC2CCC2)cc1-c1cncc(F)c1 [Example 126, cyclobutyl (3-(5-fluoropyridin-3-yl)-4-methylphenyl)carbamate] | 20.7 µM | < 5.00 |
